Data on 29 molecules can be found in paper PMC3845967 (ACS medicinal chemistry letters, 2013).

For data set [1], the system named is mouse embryonic fibroblasts (MEFs). The experiment in a line: MTT toxicity assay, mouse embryonic fibroblasts. Type of data set: cell-based. The settings on record: for EC50: Mus musculus, Fibroblast. (Tetrazolium assays rely on reduction of a dye to a coloured formazan, in cell work by metabolically active cells.)
Data set [2] has as its system fibroblasts or normal epithelial cells. The settings on record: cited from earlier work.
Data set [3] deals with MDA-MB-231 and MCF7 breast cancer cells. Type of data set: cell-based. The settings on record: for EC50: 72 h, read-out: EC50 (span over series and cell lines); for effect of substitution on activity compared to MKT-077: either cell line (MDA-MB-231, MCF7).
The subject of data set [4] is MCF7 breast cancer cells. The experiment in a line: MTT anti-proliferative assay, MCF7 cells. The format is cell-based.
The subject of data set [5] is MDA-MB-231 breast cancer cells. The experiment in a line: MTT anti-proliferative assay, MDA-MB-231 cells. The format is cell-based.
Data set [6] deals with MDA-MB-231 cells. The data set is described as follows: Cleavage of caspase-3 and PARP. The format is cell-based. The settings on record: 48 h.
Data set [7] has as its system MDA-MB-231 and MCF7 cells. The data set is described as follows: p62 oligomerization / autophagic flux. The format is cell-based. The settings on record: 24 h.
Data set [8] addresses human Hsc70 (Homo sapiens, UniProt P11142). The experiment in a line: ELISA binding of biotinylated analogs to immobilized Hsc70. (In general: In an ELISA, binding on a coated surface is turned into a signal by an enzyme label.)

Usually EC50 stands for the concentration that produces a half-maximal response. One may read the Kd as the constant that tells how readily two partners part at equilibrium. A high value points to lower affinity.

Sequence of human Hsc70 (P11142 whole entry): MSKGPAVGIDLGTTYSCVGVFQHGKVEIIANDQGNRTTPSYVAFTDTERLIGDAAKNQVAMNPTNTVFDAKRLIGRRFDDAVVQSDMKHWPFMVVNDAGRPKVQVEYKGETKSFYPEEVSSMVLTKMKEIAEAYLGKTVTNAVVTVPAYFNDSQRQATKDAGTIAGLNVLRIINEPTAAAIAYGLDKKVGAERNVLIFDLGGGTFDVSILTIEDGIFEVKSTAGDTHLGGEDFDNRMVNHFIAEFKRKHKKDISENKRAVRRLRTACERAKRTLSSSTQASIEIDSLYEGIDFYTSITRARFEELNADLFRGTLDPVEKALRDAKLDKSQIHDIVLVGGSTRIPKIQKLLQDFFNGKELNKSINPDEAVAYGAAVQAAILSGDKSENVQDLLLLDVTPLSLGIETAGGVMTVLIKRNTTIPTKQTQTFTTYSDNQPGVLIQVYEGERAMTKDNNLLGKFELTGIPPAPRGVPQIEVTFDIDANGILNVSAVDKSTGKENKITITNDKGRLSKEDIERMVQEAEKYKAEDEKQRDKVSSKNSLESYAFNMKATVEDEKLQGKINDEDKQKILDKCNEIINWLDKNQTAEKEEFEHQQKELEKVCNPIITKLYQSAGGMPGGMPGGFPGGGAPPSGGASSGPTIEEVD

`CCn1c(=O)/c(=C2\Sc3ccccc3N2C)s/c1=C\c1cccc[n+]1CC.[Cl-]` [MKT-077, reference compound] registered an EC50 in data set [1] of more than 50 µM. In data set [2], the “toxicity to fibroblasts or normal epithelial cells” value is “not toxic”.

For `CCn1c(=O)/c(=C2\Sc3ccccc3N2C)s/c1=C\c1cccc[n+]1C.[Cl-]` [YM-01, reference compound], the EC50 in data set [1] is more than 50 µM. The “toxicity to fibroblasts or normal epithelial cells” value in data set [2] is given as “not toxic”.

With `CCn1c(=O)/c(=C2\Sc3cccc(F)c3N2C)s/c1=C\c1cccc[n+]1C` [compound 1], in data set [3], the EC50 fell in the range of 2.2 to 18 µM.

For `CCn1c(=O)/c(=C2\Sc3ccc(F)cc3N2C)s/c1=C\c1cccc[n+]1C` [compound 2], in data set [3], the EC50 is 2.2 to 18 µM.

Consider `CCn1c(=O)/c(=C2\Sc3cc(F)ccc3N2C)s/c1=C\c1cccc[n+]1C` [compound 3], for which the EC50 in data set [3] fell in the range of 2.2 to 18 µM.

As for `CCn1c(=O)/c(=C2\Sc3c(F)cccc3N2C)s/c1=C\c1cccc[n+]1C` [compound 4], in data set [3], the EC50 lay in the range of 2.2 to 18 µM.

Turning to `CCn1c(=O)/c(=C2\Sc3cccc(F)c3N2C)s/c1=C\c1cccc[n+]1CC` [compound 5], the EC50 in data set [3] fell in the range of 0.8 to 13 µM.

With `CCn1c(=O)/c(=C2\Sc3ccc(F)cc3N2C)s/c1=C\c1cccc[n+]1CC` [compound 6], in data set [3], the half-maximal effective concentration (EC50) lay in the range of 0.8 to 13 µM.

Take `CCn1c(=O)/c(=C2\Sc3cc(F)ccc3N2C)s/c1=C\c1cccc[n+]1CC` [compound 7]: the EC50 in data set [3] was in the range of 0.8 to 13 µM.

Regarding `CCn1c(=O)/c(=C2\Sc3c(F)cccc3N2C)s/c1=C\c1cccc[n+]1CC` [compound 8], in data set [3], the concentration for a half-maximal effect (EC50) fell in the range of 0.8 to 13 µM.

Take `CCn1c(=O)/c(=C2\Sc3cccc(Cl)c3N2C)s/c1=C\c1cccc[n+]1C` [compound 9]: the EC50 in data set [3] was in the range of 4.1 to 28 µM.

In the case of `CCn1c(=O)/c(=C2\Sc3ccc(Cl)cc3N2C)s/c1=C\c1cccc[n+]1C` [compound 10], in data set [3], the EC50 lay in the range of 4.1 to 28 µM.

As for `CCn1c(=O)/c(=C2\Sc3cc(Cl)ccc3N2C)s/c1=C\c1cccc[n+]1C` [compound 11], the EC50 in data set [3] was in the range of 4.1 to 28 µM.

For the molecule `CCn1c(=O)/c(=C2\Sc3c(Cl)cccc3N2C)s/c1=C\c1cccc[n+]1C` [compound 12], the EC50 in data set [3] was in the range of 4.1 to 28 µM.

Regarding `CCn1c(=O)/c(=C2\Sc3ccc(OC)cc3N2C)s/c1=C\c1cccc[n+]1C` [compound 13], in data set [3], the EC50 lay in the range of 3 to 30 µM.

Consider `CCn1c(=O)/c(=C2\Sc3cc(OC)ccc3N2C)s/c1=C\c1cccc[n+]1C` [compound 14], for which the EC50 in data set [3] lay in the range of 3 to 30 µM.

For `CCn1c(=O)/c(=C2\Sc3ccc(C(F)(F)F)cc3N2C)s/c1=C\c1cccc[n+]1C` [compound 15], the EC50 in data set [3] is 3 to 30 µM.

As for `CCn1c(=O)/c(=C2\Sc3cc(C(F)(F)F)ccc3N2C)s/c1=C\c1cccc[n+]1C` [compound 16], the half-maximal effective concentration (EC50) in data set [3] was 3 to 30 µM.

In the case of `C=CCn1c(=O)/c(=C2\Sc3ccccc3N2C)s/c1=C\c1cccc[n+]1C.[Cl-]` [compound 17], in data set [3], the “effect of substitution on activity compared to MKT-077” value was “did not substantially affect activity”.

On to `CN1/C(=c2\s/c(=C\c3cccc[n+]3C)n(Cc3ccccc3)c2=O)Sc2ccccc21.[Cl-]` [compound 18], for which the “effect of substitution on activity compared to MKT-077” value in data set [3] was “did not substantially affect activity”.

Take `CCn1c(=O)/c(=C2\Sc3ccccc3N2C)s/c1=C\c1cccc[n+]1Cc1ccccc1.[Cl-]` [compound 20]: the “fold improvement in activity compared to MKT-077” value in data set [3] (MDA-MB-231 and MCF7 cells) is given as “approximately 2 fold”.

As to `CCn1c(=O)/c(=C2\Sc3ccccc3N2C)s/c1=C\c1nccc[n+]1C.[Cl-]` [compound 23], the “fold reduction in potency” value in data set [3] (compared to MKT-077) was “approximately 2 fold”.

Consider `CCn1c(=O)/c(=C2\Sc3ccccc3N2C)s/c1=C\c1scc[n+]1C.[Cl-]` [compound 24], for which the “fold improvement in potency compared to MKT-077” value (“fold improvement in potency” below) in data set [4] stood at 3 fold.

Regarding `CCn1c(=O)/c(=C2\Sc3ccccc3N2C)s/c1=C\c1scc[n+]1Cc1ccccc1.[Cl-]` [compound 26], the “fold improvement in potency” value in data set [5] came out at 2 fold; in data set [4] it was 4 fold.

As for `CCn1c(=O)/c(=C2\Sc3cccc(F)c3N2C)s/c1=C\c1scc[n+]1Cc1ccccc1.[Cl-]` [compound 27], the entries for the “fold improvement in potency” value in data set [5] and in data set [4] were “more than 3 fold” and 2 fold, respectively. For the same molecule, the “activity against MEFs compared to MKT-077” value in data set [1] was “increased activity against MEFs”.

As to `CCn1c(=O)/c(=C2\Sc3cc(Cl)ccc3N2C)s/c1=C\c1scc[n+]1Cc1ccccc1.[Cl-]` [compound 30], the “activity against MEFs compared to MKT-077” value in data set [1] is “increased activity against MEFs”. Besides, in data set [6], the “cleavage of caspase-3 and PARP” value is recorded as “activated”. For the same molecule, the “autophagic flux (p62 oligomerization, p62 monomer)” value in data set [7] is on record as “strongly affected autophagic flux”.

Take `CCn1c(=O)/c(=C2\Sc3cccc(F)c3N2C)s/c1=C\c1scc[n+]1Cc1ccc(CNC(=O)CCCC[C@@H]2SC[C@@H]3NC(=O)N[C@@H]32)cc1` [compound 32]: the dissociation constant Kd in data set [8] is 2.4 ± 0.4 µM.

Consider `CCn1c(=O)/c(=C2\Sc3cccc(F)c3N2C)s/c1=C\c1cccc[n+]1CCCCCCNC(=O)CCCC[C@@H]1SC[C@@H]2NC(=O)N[C@@H]21` [compound 34], for which binding in data set [8] was put at a Kd of 10.9 ± 4.4 µM.

On to `CCn1c(=O)/c(=C2\Sc3cccc(Cl)c3N2C)s/c1=C\c1cccc[n+]1CCCCCCNC(=O)CCCC[C@@H]1SC[C@@H]2NC(=O)N[C@@H]21` [compound 38], for which the Kd in data set [8] amounted to 7.7 ± 1 µM.
